Reference: the supplement of paper PMC11208160

Assay: recombinant UMI read abundance after kanamycin selection (control-corrected) (log10(CPM+1)); higher = more efficient recombination; extreme values may be limits of the assay; sequences stand for … in AGTGCAGAGAAAATCGGCCAGTTTTCTCTGCCTGCAGTCCGCATGCCGTGGGACCCCTTGGGTTCTAACCTGTTGCCTAGATTTATGCAGCGGACTGCCTTTCTCCCAAAGTGATAAACCGG…AGGTTGGTTTCACT; site = the 11-nt donor
Summary of the method: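 Reported values are log10(CPM+1) from a pooled Escherichia coli screen of donor and donor-binding-loop pairs for the IS621 bridge recombinase. Selection used IPTG (0.07 mM) plus kanamycin, against unselected plating, each in two replicates. Recombinant UMIs were amplified across the donor–target junction, sequenced, converted to CPM, averaged over replicates and scaled by control-derived factors.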
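Also: IS621 bridge recombinase in Escherichia coli cells against a fixed T5 target plasmid.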

| Sequence | recombinant UMI read abundance (log10) |
| --- | --- |
| CCAACTACATGGACCGGTTTTCCCGGTAATCCGTATTTGGC (site CCAACTACTGC) | 0 |
| CCAATCGCATGGACCGGTTTTCCCGGTAATCCGTATTTGCA (site CCAATCGCTTG) | 0 |
| CCAATTACATGGACCGGTTTTCCCGGTAATCCGTATTTGCC (site CCAATTACTGG) | 0 |
| CCACACACATGGACCGGTTTTCCCGGTAATCCGTATTTGCA (site CCACACACTTG) | 2.07 |
| CCACCCTCATGGACCGGTTTTCCCGGTAATCCGTATTTGCT (site CCACCCTCTAG) | 1.95 |
| CCACGGACATGGACCGGTTTTCCCGGTAATCCGTATTTGGT (site CCACGGACTAC) | 0.0137 |
| CCACGGCCATGGACCGGTTTTCCCGGTAATCCGTATTTGTA (site CCACGGCCTTA) | 0 |
| CCACGTCCATGGACCGGTTTTCCCGGTAATCCGTATTTGGT (site CCACGTCCTAC) | 0.0291 |
| CCACTTGCATGGACCGGTTTTCCCGGTAATCCGTATTTGTG (site CCACTTGCTCA) | 0.358 |
| CCAGATGCATGGACCGGTTTTCCCGGTAATCCGTATTTGCG (site CCAGATGCTCG) | 1.59 |
| CCAGGATCATGGACCGGTTTTCCCGGTAATCCGTATTTGAT (site CCAGGATCTAT) | 0 |
| CCAGGCGCATGGACCGGTTTTCCCGGTAATCCGTATTTGAT (site CCAGGAGCTAT) | 1.06 |
| CCAGGCGCATGGACCGGTTTTCCCGGTAATCCGTATTTGAT (site CCAGGCGCTAT) | 1.24 |
| CCAGGCGCATGGACCGGTTTTCCCGGTAATCCGTATTTGAT (site CCAGGGGCTAT) | 0.00758 |
| CCAGGCGCATGGACCGGTTTTCCCGGTAATCCGTATTTGAT (site CCAGGTGCTAT) | 0.707 |
| CCAGGGGCATGGACCGGTTTTCCCGGTAATCCGTATTTGAT (site CCAGGAGCTAT) | 0.735 |
| CCAGGGGCATGGACCGGTTTTCCCGGTAATCCGTATTTGAT (site CCAGGCGCTAT) | 0.972 |
| CCAGGGGCATGGACCGGTTTTCCCGGTAATCCGTATTTGAT (site CCAGGGGCTAT) | 1.04 |
| CCAGGGGCATGGACCGGTTTTCCCGGTAATCCGTATTTGAT (site CCAGGTGCTAT) | 0.888 |
| CCAGTACCATGGACCGGTTTTCCCGGTAATCCGTATTTGCA (site ACAGTATCTTG) | 0 |
| CCAGTACCATGGACCGGTTTTCCCGGTAATCCGTATTTGCA (site CCAGTACCTTG) | 0 |
| CCAGTATCATGGACCGGTTTTCCCGGTAATCCGTATTTGAA (site ACAGTATCTTG) | 0.128 |
| CCAGTATCATGGACCGGTTTTCCCGGTAATCCGTATTTGAA (site CCAGTATCTTT) | 1.05 |
| CCAGTATCATGGACCGGTTTTCCCGGTAATCCGTATTTGAA (site CTAGTATCTGT) | 0 |
| CCAGTATCATGGACCGGTTTTCCCGGTAATCCGTATTTGCC (site ACAGTATCTTG) | 0.0067 |

| Sequence | recombinant UMI read abundance (log10) |
| --- | --- |
| CCAGTATCATGGACCGGTTTTCCCGGTAATCCGTATTTGCC (site CCAGTATCTGG) | 1.44 |
| CCAGTATCATGGACCGGTTTTCCCGGTAATCCGTATTTGCC (site CTAGTATCTGT) | 0 |
| CCAGTCACATGGACCGGTTTTCCCGGTAATCCGTATTTGGA (site CCAGTCACTTC) | 0.00572 |
| CCAGTGTCATGGACCGGTTTTCCCGGTAATCCGTATTTGCA (site ACAGTATCTTG) | 0 |
| CCAGTGTCATGGACCGGTTTTCCCGGTAATCCGTATTTGCA (site CCAGTGTCTTG) | 1.5 |
| CCAGTTTCATGGACCGGTTTTCCCGGTAATCCGTATTTGAC (site CCAGTTTCTGT) | 0.759 |
| CCAGTTTCATGGACCGGTTTTCCCGGTAATCCGTATTTGAC (site CTAGTATCTGT) | 0 |
| CCATAAACATGGACCGGTTTTCCCGGTAATCCGTATTTGAA (site CCATAAACTTT) | 1.22 |
| CCATACTCATGGACCGGTTTTCCCGGTAATCCGTATTTGCA (site ACATACTCTTG) | 0.648 |
| CCATACTCATGGACCGGTTTTCCCGGTAATCCGTATTTGCA (site CCATACTCTTG) | 2.11 |
| CCATACTCATGGACCGGTTTTCCCGGTAATCCGTATTTGCA (site GCATACTCTTG) | 0 |
| CCATACTCATGGACCGGTTTTCCCGGTAATCCGTATTTGCA (site TCATACTCTTG) | 0 |
| CCATACTCATGGACCGGTTTTCCCGGTAATCCGTATTTGGC (site CCATACTCTGC) | 0.585 |
| CCATAGCCATGGACCGGTTTTCCCGGTAATCCGTATTTGCC (site CCATAGCCTGG) | 0 |
| CCATAGCCATGGACCGGTTTTCCCGGTAATCCGTATTTGCC (site CCCTAGCCTGG) | 0 |
| CCATAGCCATGGACCGGTTTTCCCGGTAATCCGTATTTGCC (site CCGTAGCCTGG) | 0 |
| CCATAGCCATGGACCGGTTTTCCCGGTAATCCGTATTTGCC (site CCTTAGCCTGG) | 0 |
| CCATAGTCATGGACCGGTTTTCCCGGTAATCCGTATTTGAA (site CCATAGTCTTT) | 1.86 |
| CCATATGCATGGACCGGTTTTCCCGGTAATCCGTATTTGCA (site CCATATGCTTG) | 0.198 |
| CCATCCTCATGGACCGGTTTTCCCGGTAATCCGTATTTGGT (site CCATCCTCTAC) | 1.38 |
| CCATCTACATGGACCGGTTTTCCCGGTAATCCGTATTTGTG (site ACATCTACTCA) | 0.0369 |
| CCATCTACATGGACCGGTTTTCCCGGTAATCCGTATTTGTG (site CCATCTACTCA) | 0.0215 |
| CCATCTACATGGACCGGTTTTCCCGGTAATCCGTATTTGTG (site GCATCTACTCA) | 0.00588 |
| CCATCTACATGGACCGGTTTTCCCGGTAATCCGTATTTGTG (site TCATCTACTCA) | 0 |
| CCATCTGCATGGACCGGTTTTCCCGGTAATCCGTATTTGAA (site CCATCTGCTTT) | 1.91 |

| Sequence | recombinant UMI read abundance (log10) |
| --- | --- |
| CCATGGGCATGGACCGGTTTTCCCGGTAATCCGTATTTGAG (site CCATGGGCTCT) | 0.633 |
| CCATGGTCATGGACCGGTTTTCCCGGTAATCCGTATTTGAA (site CCATGGTCTTT) | 0.724 |
| CCATGTGCATGGACCGGTTTTCCCGGTAATCCGTATTTGAA (site CCATGTGCTTT) | 0.336 |
| CCCACCCCATGGACCGGTTTTCCCGGTAATCCGTATTTGGC (site CCCACCCCTGC) | 0 |
| CCCACTACATGGACCGGTTTTCCCGGTAATCCGTATTTGTT (site CCCACTACTAA) | 0.141 |
| CCCAGTCCATGGACCGGTTTTCCCGGTAATCCGTATTTGCA (site CCCAGTCCTTG) | 0 |
| CCCAGTCCATGGACCGGTTTTCCCGGTAATCCGTATTTGCA (site CCCCGTCCTTG) | 0 |
| CCCAGTCCATGGACCGGTTTTCCCGGTAATCCGTATTTGCA (site CCCGGTCCTTG) | 0.00873 |
| CCCAGTCCATGGACCGGTTTTCCCGGTAATCCGTATTTGCA (site CCCTGTCCTTG) | 0.0169 |
| CCCATATCATGGACCGGTTTTCCCGGTAATCCGTATTTGAT (site CCCATATCTAT) | 0 |
| CCCATATCATGGACCGGTTTTCCCGGTAATCCGTATTTGTA (site CCCATATCTAA) | 0.0053 |
| CCCATATCATGGACCGGTTTTCCCGGTAATCCGTATTTGTA (site CCCATATCTCA) | 0.0171 |
| CCCATATCATGGACCGGTTTTCCCGGTAATCCGTATTTGTA (site CCCATATCTGA) | 0 |
| CCCATATCATGGACCGGTTTTCCCGGTAATCCGTATTTGTA (site CCCATATCTTA) | 0.903 |
| CCCATATCATGGACCGGTTTTCCCGGTAATCCGTATTTGTC (site ACCATATCTGA) | 0 |
| CCCATATCATGGACCGGTTTTCCCGGTAATCCGTATTTGTC (site CACATATCTGA) | 0 |
| CCCATATCATGGACCGGTTTTCCCGGTAATCCGTATTTGTC (site CCAATATCTGA) | 0 |
| CCCATATCATGGACCGGTTTTCCCGGTAATCCGTATTTGTC (site CCCAAATCTGA) | 0 |
| CCCATATCATGGACCGGTTTTCCCGGTAATCCGTATTTGTC (site CCCACATCTGA) | 0 |
| CCCATATCATGGACCGGTTTTCCCGGTAATCCGTATTTGTC (site CCCAGATCTGA) | 0 |
| CCCATATCATGGACCGGTTTTCCCGGTAATCCGTATTTGTC (site CCCATAACTGA) | 0 |
| CCCATATCATGGACCGGTTTTCCCGGTAATCCGTATTTGTC (site CCCATACCTGA) | 0.34 |
| CCCATATCATGGACCGGTTTTCCCGGTAATCCGTATTTGTC (site CCCATAGCTGA) | 0 |
| CCCATATCATGGACCGGTTTTCCCGGTAATCCGTATTTGTC (site CCCATATCTAA) | 0.00469 |
| CCCATATCATGGACCGGTTTTCCCGGTAATCCGTATTTGTC (site CCCATATCTCA) | 0 |
